Measurements reported in US10793557B2, “Sting agonist compounds” (Merck Sharp & Dohme Corp., priority 2018, dated 2020).

Legend:
[1] = system: secretion of interferon-beta from THP1 cells; experiment: IFN-β secretion in THP1 cell culture (5 h); assay type: cell-based; conditions: Homo sapiens, THP-1, 5 h, 30 uM cGAMP = 100%; for activation at 30 µM: compound at 30 μM, read-out: % Effect at 30 μM relative to 2′3′-cGAMP; for activation at 3 µM: compound at 3 uM, read-out: % Effect relative to 2′3′-cGAMP (@ 3 uM)
Procedure: The ability of compounds to stimulate the secretion of interferon-beta from THP1 cells was measured using a human IFN-β AlphaLISA kit (Perkin Elmer, Cat. No. AL265F). The basic protocol is as follows:
A Labcyte Echo 550 acoustic dispenser was used to transfer 120 nL of compound dissolved in DMSO into the wells of an empty, sterile 384-well microplate, (Corning, Cat. No. 3712). THP1 cells (American Type Culture Collection, Cat. No. TIB202) previously frozen in Recovery Medium (Life Technologies, Cat. No. 12648-010) were thawed and immediately diluted 10-fold into 37° C. assay medium (RPMI 1640+L-Glutamine & phenol red, Life Technologies, Cat. No. 11875-085; 0.5% heat inactivated fetal bovine serum, Sigma Aldrich, Cat. No. F4135; 1 mM Sodium Pyruvate, Life Technologies, Cat. No. 11360-070; 1× non-essential amino acids; Life Technologies, Cat. No. 11140-050). The cell viability and count was ascertained using a Beckman Coulter V-Cell XR cell counter. The cells suspension was centrifuged at 200×g for 5 min at RT. Cells were resuspended to a density of 0.8×10^6/mL in 37° C. assay medium. Subsequent liquid transfers were performed using either a Matrix electronic multichannel pipette or an Agilent Bravo Automated Liquid Handling Platform.
The assay was started by dispensing 40 μL of the previously prepared cell suspension into the wells of the plate containing compounds. After 5 h incubation at 37° C., 5% CO2 in a humidified atmosphere, the plate of cells and compounds was centrifuged at 200×g for 5 min at RT. From each well, 5 μL of supernatant was transferred into corresponding wells of a white 384-well plate (Perkin Elmer, Cat. No. 6005620). To these supernatant-containing wells was added 10 μL of 5× Anti-Analyte Acceptor beads (50 μg/mL of AlphaLISA HiBlock Buffer) and incubated for 30 min at RT while shaking on an orbital plate shaker. To each well was added 10 μL of 5× Biotinylated Antibody Anti-analyte (5 nM in AlphaLISA HiBlock Buffer) and incubated on an orbital plate shaker for 60 min at RT or overnight at 4° C. To each well was added 25 μL of 2× SA-Donor beads (80 μg/mL in AlphaLISA HiBlock Buffer) and incubated for 30-45 min at RT in the dark while shaking on an orbital plate shaker. The plate was then read on a Perkin Elmer Envision (λex=680 nm, […]). The percent effect of the AlphaLISA signal at each compound concentration was calculated based on 30 uM cGAMP positive controls and 0.3% DMSO negative controls. The plot of percent effect versus the log of compound concentration was fit with a 4-parameter concentration response equation to calculate EC50 values. The test compounds were tested at concentrations 30000, 10000, 3333, 1111, 370.4, 123.4, 41.2, 13.7, 4.6, and 1.5 nM with 0.3% residual DMSO. The control compound, cGAMP was tested at concentrations 100000, 33333, 11111, 3704, 1235, 412, 137, 46, and 15 nM with 0.3% residual DMSO.
Compounds of the disclosure were evaluated for IFN-β secretion in THP1 cell culture as described above. The following table tabulates the biological data for these compounds as percent activation relative to 2′3′-cGAMP at the 30 µM concentration.

full-length WT STING = target: T1, full-length WT STING (Homo sapiens, UniProt Q86WV6, H232R); experiment: 3H-cGAMP filtration binding assay (WT STING); conditions: for EC50: competition with tritiated cGAMP, WT STING membrane
T1 construct: AviTag (after gg linker) (C); HRV3C cleavage site (after gs linker) (C); HIS8 (C); made in house; host or cells: Trichoplusia ni (Hi-Five) insect cells infected with baculovirus (virus generated and amplified in Sf21 cells); used as a washed membrane preparation
Procedure: (§1) The ability of compounds to bind STING is quantified by their ability to compete with tritiated cGAMP ligand for human STING receptor membrane using a radioactive filter-binding assay. The binding assay employs STING receptor obtained from Trichoplusia ni cell membranes (T. ni; Expression Systems, cat #94-002F, www.expressionsystems.com) overexpressing full-length WT STING and tritiated cGAMP ligand.
The basic WT STING filtration assay protocol is as follows:
16 nM of [^3H] c-GAMP ligand was prepared by diluting into assay buffer, and 50 uL of this working stock was manually added to each well of the assay plate. After ligand addition, 2 uL of either titrated test compound, DMSO control (Sigma #276855), or cold cGAMP control was added to the appropriate wells using a BIOMEK FX. The serially titrated compound was prepared on a Hamilton STARPlus CORE in a 96-well plate (Greiner, #651201) using a 1:3 ten-point dose response format. Following compound addition, a 2.2 ug/ml working concentration of STING membrane (SEQ. ID. No. 3) was prepared by diluting concentrated membrane into assay buffer (1×PBS; Invitrogen # SH30028.02) and douncing 7× using a manual tissue homogenizer (Wheaton, #357546). 148 uL of this prepared membrane was then manually added to each well of a 96-well deep-well polypropylene plate (Fisher Scientific, #12-566-121). Compound, ligand, and membrane then incubated for 60 min at RT before the contents of each assay plate were filtered through a 96-well GF/B filter plate (PerkinElmer, #6005250) using a TOMTEC MACH III Cell Harvester equipped with 20 mM HEPES buffer (Fisher Scientific, # BP299500). The filter plates were then dried at 55° C. for 30 min using a pressurized VWR oven before 30 uL of ULTIMA GOLD F scintillate was added to each well. Tritium levels for each reaction well were then measured using a PerkinElmer TopCount plate reader.
(§2) After normalization to controls, the percent activity for each compound concentration was calculated by measuring the amount of remaining radioactivity. The plot of percent activity versus the log of compound concentration was fit with a 4-parameter dose response equation to calculate EC50 values.

full-length HAQ STING = target: T2, full-length HAQ STING (Homo sapiens, UniProt Q86WV6, G230A/H232R/R293Q/R71H); experiment: 3H-cGAMP filtration binding assay (HAQ STING); conditions: for EC50: competition with tritiated cGAMP, HAQ STING membrane
T2 construct: AviTag (after GG linker) (C); HRV3C cleavage site (after GS linker) (C); HIS8 (C); made in house; host or cells: Trichoplusia ni (Hi-Five) insect cells infected with baculovirus (virus generated and amplified in Sf21 cells); used as a washed membrane preparation
From the text: The ability of compounds to bind STING is quantified by the ability to compete with tritiated cGAMP ligand for human STING receptor membrane using a radioactive filter-binding assay. The binding assay employs STING receptor obtained from Hi-Five cell membranes overexpressing full-length HAQ STING prepared in-house and tritiated cGAMP ligand also purified in-house.
as §1, with “HAQ” for “WT”
The basic HAQ STING filtration assay protocol is as follows:
The compounds were serially titrated by the Hamilton STARPlus CORE in a 96-well plate (Greiner, #651201) using a 1:3 ten-point dose response format. After compound preparation, a 2.2 ug/ml working concentration of STING membrane (SEQ. ID. No. 1) was prepared by diluting concentrated membrane into assay buffer (1×PBS; Invitrogen # SH30028.02) and douncing 7× using a manual tissue homogenizer (Wheaton, #357546). 148 uL of prepared membrane was then manually added to each well of a 96-well deep-well polypropylene plate (Fisher Scientific, #12-566-121). Following membrane addition, 2 uL of either titrated test compound, DMSO control (Sigma #276855), or cold cGAMP control was added to the appropriate wells using a BIOMEK FX. Compound and membrane then preincubated for 60 min at RT to allow compound binding to equilibrate. Following equilibration, 8 nM of [^3H]c-GAMP ligand was prepared by diluting into assay buffer, and 50 uL of this working stock was then manually added to each well of the assay plate. Plates were then incubated at RT for 60 min, and the contents of each assay plate were then filtered through a 96-well GF/B filter plate (PerkinElmer, #6005250) using a TOMTEC MACH III Cell Harvester equipped with 20 mM HEPES buffer (Fisher Scientific, # BP299500). The filter plates were then dried at 55° C. for 30 min using a pressurized oven before 30 uL of ULTIMA GOLD F scintillate was added to each well. Tritium levels for each reaction well were then measured using a PerkinElmer TopCount plate reader.
as §2

T1 sequence (Q86WV6 with tags, fused parts or gaps H232R): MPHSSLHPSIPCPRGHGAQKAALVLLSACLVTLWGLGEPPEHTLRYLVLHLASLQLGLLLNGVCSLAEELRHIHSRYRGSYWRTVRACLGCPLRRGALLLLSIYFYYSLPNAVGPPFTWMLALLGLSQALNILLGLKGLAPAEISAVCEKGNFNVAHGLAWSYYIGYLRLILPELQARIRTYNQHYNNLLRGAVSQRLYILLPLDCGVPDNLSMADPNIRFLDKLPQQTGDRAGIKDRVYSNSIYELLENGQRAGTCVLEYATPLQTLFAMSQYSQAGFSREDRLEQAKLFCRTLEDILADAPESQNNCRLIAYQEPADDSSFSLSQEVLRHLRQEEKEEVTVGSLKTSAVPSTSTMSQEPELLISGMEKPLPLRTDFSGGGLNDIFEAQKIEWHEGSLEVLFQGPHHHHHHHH
T2 sequence (Q86WV6 with tags, fused parts or gaps R71H/G230A/H232R/R293Q): as the sequence (Q86WV6 with tags, fused parts or gaps H232R) above, with R71H, G230A, R293Q counted along it

| EC50 (full-length WT STING) | EC50 (full-length HAQ STING) | inhibition at 20 µM (full-length WT STING; at 20,000 nM compound) | inhibition at 20 µM (full-length HAQ STING; at 20,000 nM compound) | Structure (SMILES) | activation at 30 µM [1] | activation at 3 µM [1] |
| --- | --- | --- | --- | --- | --- | --- |
| 813 nM | 237 nM |  |  | COc1cc2cc(C(=O)C[C@H](C)C(=O)O)sc2cc1OCCCCOc1cc2sc(C(=O)C[C@H](C)C(=O)O)cc2cc1OC [Example 95, (2S,2′S)-4,4′-(6,6′-(butane-1.4-diylbis(oxy))bis(5-methoxybenzo[b]thiophene-6,2-diyl))bis(2-methyl-4-oxobutanoic acid)] | 72% |  |
|  |  | 34% | 44% | COC(=O)[C@@H](C)CC(=O)c1cc2cc(OCCCOc3cc4cc(C(=O)C[C@H](C)C(=O)OC)sc4cc3OC)c(OC)cc2s1 [Example 49, dimethyl 4,4′-((propane-1,3-diylbis(oxy))bis(6-methoxybenzo[b]thiophene-5,2-diyl))(2S,2′S)-bis(2-methyl-4-oxobutanoate)] | 17% |  |
| 1 nM | 1 nM |  |  | CNc1cc2sc(C(=O)C[C@H](C)C(=O)O)cc2cc1OCCCOc1c(OC)cc2sc(C(=O)C[C@H](C)C(=O)O)cc2c1F [Example 157, (S)-4-(5-(3-((2-((S)-3-carboxybutanoyl)-4-fluoro-6-methoxybenzo[b]thiophen-5-yl)oxy)propoxy)-6-(methylamino)benzo[b]thiophen-2-yl)-2-methyl-4-oxobutanoic acid] |  | 63% |
| 19 nM | 4 nM |  |  | COc1cc2sc(C(=O)C[C@H](C)C(=O)O)cc2c(F)c1OCCCOc1cc2sc(C(=O)C[C@H](C)C(=O)O)cc2nc1OC [Example 167, (S)-4-(6-(3-((2-((S)-3-carboxybutanoyl)-4-fluoro-6-methoxybenzo[b]thiophen-5-yl)oxy)propoxy)-5-methoxythieno[3,2-b]pyridin-2-yl)-2-methyl-4-oxobutanoic acid] | 66% |  |
| 4 nM | 3 nM |  |  | COc1cc2sc(C(=O)CCC(=O)O)cc2cc1OCCOc1c(OC)cc2sc(C(=O)C[C@H](C)C(=O)O)cc2c1F [Example 34, (S)-4-(5-(2-((2-(3-carboxypropanoyl)-6-methoxybenzo [b]thiophen-5-yl)oxy)ethoxy)-4-fluoro-6-methoxybenzo[b]thiophen-2-yl)-2-methyl-4-oxobutanoic acid] | 72% |  |
| 207 nM | 18 nM |  |  | COc1cc2sc(CC[C@H](C)C(=O)O)cc2c(F)c1OCCCOc1c(OC)cc2sc(C(=O)C[C@H](C)C(=O)O)cc2c1Cl [Example 147, (S)-4-(5-(3-((2-((S)-3-carboxybutyl)-4-fluoro-6-methoxybenzo[b]thiophen-5-yl)oxy)propoxy)-4-chloro-6-methoxybenzo[b]thiophen-2-yl)-2-methyl-4-oxobutanoic acid] |  | 71% |
| 12 nM | 5 nM |  |  | C[C@@H](CC(=O)c1cc2cc(OCCCOc3cc4cc(C(=O)C[C@H](C)C(=O)O)sc4cc3OC(F)F)c(OC(F)F)cc2s1)C(=O)O [Example 79, (2S,2′S)-4,4′-(1,3-propanediylbis{oxy[6-(difluoromethoxy)-1-benzothiene-5,2-diyl]})bis(2-methyl-4-oxobutanoic acid)] | 49% |  |
| 21 nM | 3 nM |  |  | COc1cc2sc(C(=O)C[C@H](C)C(=O)O)cc2cc1CCCOc1nc2cc(C(=O)CCC(=O)O)sc2cc1OC [Example 14, (S)-4-(5-(3-((2-(3-carboxypropanoyl)-6-methoxythieno[3,2-b]pyridin-5-yl)oxy)propyl)-6-methoxybenzo[b]thiophen-2-yl)-2-methyl-4-oxobutanoic acid] | 77% |  |
| 9010 nM | 360 nM |  |  | COc1cc2sc(C(=O)CCC(=O)O)cc2cc1CCCOc1c(OC)cc2sc(C(=O)[C@@H]3C[C@H]3C(=O)O)cc2c1F (relative stereo) [Example 85, trans-2-(5-(3-(2-(3-carboxypropanoyl)-6-methoxybenzo[b]thiophen-5-yl)propoxy)-4-fluoro-6-methoxybenzo[b]thiophene-2-carbonyl)cyclopropane carboxylic acid] | 145% |  |
